The source of these data is patent US12558329B2 (New York University, priority 2021, dated 2026).

Assay [1] deals with human cells. The assay can be described thus: 18O2-GASSP labelling of human cells, untargeted polar metabolomics, with or without IOX1. The format is cell-based. The note with it: A498 and SKNDZ cells, 3%, 1%, 0.2% 18O2, IOX1 24 hours. The procedure: To map the molecular fate of O2 in metabolic pathways in living cells, GASSP was used to carry out ^18O2 labelling in cell lines of different tissue origins at ^18O2 concentrations that represented physiological (3%), hypoxic (1%), and severely hypoxic (0.2%) oxygen tensions found in tissues and tumours^7. At the end of each run, polar metabolites were extracted and untargeted polar metabolomics using liquid chromatography-high resolution mass spectrometry (LC-MS) were carried out to identify metabolites labeled with ^18O.
A list of unique features identified by untargeted metabolomics that were >0.25% (natural abundance of ^18O is 0.2%) labelled by ^18O atoms in each cell line at each oxygen tension was generated. In addition, background signal was controlled by requiring that ^18O labeled peaks had to have a signal that was two-fold greater than naturally occurring isotopes found in non-labelled (^16O) metabolite cell extracts. To determine the proportion of unique ^18O labelled features that were due to dioxygenase activity, cells were treated with a pan-dioxygenase inhibitor (IOX1) at concentrations that inhibit iron-dependent dioxygenases, such as the HIF1α prolyl hydroxylases (FIGS. 5E-5F) and identified ^18O labelled polar metabolites. This list of ^18O metabolites was generated by identifying all features in the unlabelled samples, filtering these features against blank samples to remove background peaks, and calculating the fractional ^18O labelling with the assumption that a metabolite would have no more than three oxygen atoms labelled, followed by manual curation of labelled features (FIG. 1B and FIG. 5G). […] These ^18O-labelled features were termed the oxy-metabolome.
To determine the identities of the labeled metabolites, the list of ^18O labelled features was annotated to their corresponding unlabelled metabolites using retention time matching, tandem mass spectrometry (MS2) fragmentation patterns, and database searching.
All steps involved in setting up labelling with ^18O2 were performed at room temperature and inside a chemical fume hood. The procedure may vary depending on the type and number of tissue culture plates in the chamber and the amount of media in the plates. Users must test the system by using ^16O2:CO2:N2 or other unlabelled gases to optimize conditions for their needs and avoid consumption of costly labelled gases. Cells were treated with or without 5 μM MG132, 500 μM IOX1, 250 μM DFO, or 70 μM ascorbate, before placing tissue culture plates into the modular incubator chamber (MIC) containing a wireless oxygen sensor and a 15 cm dish of water to maintain humidity. Next, the clamps were closed to form an air-tight seal between the lid and platform of the MIC. […] N2 flushing was repeated for a total of three times, or until the sensor in the chamber stabilized at 0% O2 for 10 minutes.

Assay [2] relates to MIAPACA2 cells. In words: 13C9-Tyr tracing in MIAPACA2 cells with the indicated reagents. In kind it is cell-based, human. From the text: 4-HMA biosynthesis has only been described in some bacteria and in rabbits. […] The production of 4-HPPA occurs in the first step of tyrosine (Tyr) catabolism via tyrosine transaminase (TAT). In rabbits, 4-HMA was proposed to be synthesized from the degradation of tyramine and octopamine by dopamine β-hydroxylase (Dbh) and monoamine oxidase (Mao) (FIG. 9A)^13. Tyramine is also a Tyr-derived metabolite. Therefore, all known substrates required to generate 4-HMA are derived from Tyr. In addition, Tyr can also be made from phenylalanine (Phe) by Phe hydroxylase (PAH) in mammalian liver cells^14. To elucidate the human 4-HMA biosynthetic pathway, the fates of ^13C9-Tyr and ^13C6-Phe were traced in human cells. […] Additionally, the generation of 4-HMA by […] would result in the incorporation of a single ^18O at the Ca position of the carboxylic acid of 4-HMA (FIG. 9A). However, this was not observed by ^18O labelling (FIG. 8B). Therefore, it was unlikely that 4-HMA biosynthesis from octopamine and tyramine catabolism occurred in the present system.
Unexpectedly, 4-HMA levels also were lower in hyperoxic (21%) conditions compared to 3% O2, reflecting either decreased production or increased consumption of this metabolite at 21% O2.
Therefore, CoQ10 was used as an indirect readout of 4-HB production. To assess the ability of human cells to biosynthesize CoQ10, cells were labelled with ^13C6-Phe or ^13C9-Tyr. CoQ10 was completely biosynthesized from Tyr, but not Phe, in human cells (FIG. 11B).
For metabolomics, briefly, cells were washed in 4° C. 0.9% saline and metabolites were extracted with 46% methanol:23% H2O:[…] chloroform that contained a labelled amino acid standard mix (MSK-A2-1.2, Cambridge Isotope Laboratories, Inc.). Enzymatic assay samples were extracted using 80% methanol: 20% H2O that contained labelled amino acid standards. Extracts were placed into 1.5 mL Eppendorf tubes, vortexed at 4° C. for 10 min and centrifuged at 4° C. for 10 min at 17,200×g in a microcentrifuge. The aqueous phase was transferred to vials for GC-MS or Eppendorf tubes for LC-MS. Polar samples were evaporated in a SpeedVac and samples were resolved by GC-MS or LC-MS. Lipid samples were dried using a stream of N2 (for ^18O labelling studies) or air. Metabolite and lipid extracts were submitted to the NYULMC Metabolomics Core Resource Laboratory.
For polar metabolomics, the LC column was a Millipore ZIC-pHILIC (2.1×150 […], 5 μm bead size) coupled to a Dionex UltiMate 3000 system. The column oven temperature was held at 25° C. The flow rate was 100 μL/min, and the injection volume was 1 μL. Buffer A was 10 mM ammonium carbonate in water, pH 9, and Buffer B was neat acetonitrile. The gradient profile was 80-20% B (0-30 min), 20-80% B (30-31 min), and 80-80% B (31-42 min). MS Analyses were carried out on a Thermo Q Exactive HF mass spectrometer using a heated electrospray ionization (HESI) source. The method duration was 30 min using a polarity-switching, top 5 method. The spray voltage for both positive and negative ion modes was 3.5 kV. The capillary temperature was 320° C. with a maximum spray current of 100 ρA. The full MS scan was carried out at 120,000 resolution with a scan range of 67-1000 m/z. For ^18O2 labelling experiments, full MS scans were carried out at 240,000 resolution at the same scan range. Tandem MS spectra were obtained at 15,000 resolution. All data were acquired in profile mode. Peak heights were analyzed using Xcalibur (ThermoFisher Scientific).
Lipid metabolomics were acquired using a Waters CSH-C18 (2.1×100 mm, 1.7 μm) column coupled to a Dionex UltiMate 3000 system. The column oven temperature was held at 55° C. The flow rate was 300 μL/min and the injection volume was 1 μL. Buffer A was 60:40 acetonitrile:water, 0.1% formic acid and Buffer B was 90:10 isopropanol:acetonitrile, 10 mM ammonium formate. […]

Entries after “also recorded” stand apart in the source; their conditions may differ.

Consider `O=C(O)c1ccc(O)c2ncccc12` [IOX1], for which the “4-HMA 18O labeling” value in assay [1] is reported as “decreased”. Also, in assay [2] (3% 16O2, 24 hours), the “13C9-Tyr-derived 4-HMA” value is on record as “attenuated or ablated; also recorded: severely inhibited” and the “CoQ10 labelling from 13C9-Tyr (incorporation of tyrosine into CoQ10)” value is “eliminated; also recorded: completely blocked”. For the same compound, the 4-HPLA pools entry in assay [2] (13C-Tyr, 3% O2, 24 hours) is recorded as “increased”.
